# Literature values, collected in patent publication US7329656B2, “Arylthiobenzylpiperidine derivatives” (H. Lundbeck A/S, priority 2004, dated 2008).
# Like-named read-outs stand apart in the source and are kept apart here.
# Experiments:
# guinea pig = guinea pig maternal-separation vocalization
# rat [1] = settings: rat social interaction
# rat [2] = settings: rat forced-swim
compound,measurement,setting,value
COCC1=C(C(=O)OC)[C@H](c2ccc(F)c(F)c2)N(C(=O)NCCCN2CCC(c3cccc(NC(C)=O)c3)CC2)C(=O)N1 [SNAP-7941],behavioral profile in model of depression and/or anxiety,guinea pig,profile similar to clinically used anti-depressants and anxiolytics
same,behavioral profile in model of depression and/or anxiety,rat [1],profile similar to clinically used anti-depressants and anxiolytics
same,behavioral profile in model of depression and/or anxiety,rat [2],profile similar to clinically used anti-depressants and anxiolytics
